Measurements reported in PubChem BioAssay (NCI).
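Cells were grown in 96-well plates and exposed to each compound for 48 hours at five concentrations; endpoints were interpolated linearly between bracketing concentrations, or set to the highest concentration if not reached. GI50 = concentration required for 50% inhibition of growth. The concentration for full growth arrest is given as TGI.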

Key:
Assay in all cases: NCI-60 cell line screen, 48 h
[1] = tested on: NCI-H522 lung
[2] = tested on: MDA-MB-231 breast
[3] = tested on: LOX IMVI melanoma
[4] = tested on: SF-295 CNS
[5] = tested on: BT-549 breast
[6] = tested on: HT29 colon
[7] = tested on: K-562 leukemia
[8] = tested on: HOP-92 NSCLC
[9] = tested on: PC-3 prostate
[10] = tested on: SK-MEL-2 melanoma
[11] = tested on: HCT-116 colon
[12] = tested on: M14 melanoma
[13] = tested on: UACC-257 melanoma
[14] = tested on: RPMI-8226 leukemia
[15] = tested on: OVCAR-4 ovarian
[16] = tested on: NCI/ADR-RES ovarian
[17] = tested on: KM12 colon
[18] = tested on: OVCAR-5 ovarian
[19] = tested on: U251 CNS
[20] = tested on: IGROV1 ovarian
[21] = tested on: EKVX NSCLC
[22] = tested on: HOP-62 NSCLC
[23] = tested on: SK-OV-3 ovarian
[24] = tested on: HS 578T breast
[25] = tested on: A498 renal
[26] = tested on: OVCAR-8 ovarian
[27] = tested on: UO-31 renal
[28] = tested on: T-47D breast
[29] = tested on: A549 NSCLC
[30] = tested on: SNB-19 CNS
[31] = tested on: ACHN renal
[32] = tested on: CAKI-1 renal
[33] = tested on: OVCAR-3 ovarian
[34] = tested on: CCRF-CEM leukemia
[35] = tested on: DU-145 prostate
[36] = tested on: HCT-15 colon
[37] = tested on: SNB-75 CNS
[38] = tested on: MCF7 breast
[39] = tested on: SN12C renal
[40] = tested on: SK-MEL-5 melanoma
[41] = tested on: UACC-62 melanoma
[42] = tested on: SF-268 CNS
[43] = tested on: NCI-H226 lung
[44] = tested on: COLO 205 colon
[45] = tested on: NCI-H23 lung
[46] = tested on: MDA-MB-435
[47] = tested on: 786-0 renal
[48] = tested on: SK-MEL-28 melanoma
[49] = tested on: MOLT-4 leukemia
[50] = tested on: HCC-2998 colon
[51] = tested on: SW-620 colon
[52] = tested on: RXF 393 renal
[53] = tested on: NCI-H460 lung
[54] = tested on: SF-539 CNS

With O=C(N/N=C/c1coc2ccc(Cl)cc2c1=O)c1cc(O)c(O)c(O)c1 the GI50 [1] was 38.4 µM, the TGI [1] was > 100 µM and the GI50 [2] was 19.3 µM. For the same molecule, the TGI [2] was 45 µM, the GI50 [3] was 22.5 µM and the TGI [3] was 56.6 µM. The GI50 [4] was 45.8 µM, the TGI [4] was > 100 µM and the GI50 [5] was 23.3 µM. For the same molecule, the TGI [5] was 96.6 µM, the GI50 [6] was 63.8 µM and the TGI [6] was > 100 µM. The GI50 [7] was 15.2 µM, the TGI [7] was 55.6 µM and the GI50 [8] was 31.9 µM. The TGI [8] was > 100 µM, the GI50 [9] was 33.2 µM and the TGI [9] was > 100 µM. The GI50 [10] was > 100 µM, the TGI [10] was > 100 µM and the GI50 [11] was 19.3 µM. It also gave a TGI [11] of 70 µM, a GI50 [12] of 19.3 µM and a TGI [12] of 47 µM. For the same molecule, the GI50 [13] was 39.9 µM, the TGI [13] was > 100 µM and the GI50 [14] was 28.5 µM. For the same molecule, the TGI [14] was > 100 µM, the GI50 [15] was 98.4 µM and the TGI [15] was > 100 µM. The GI50 [16] was 17.8 µM, the TGI [16] was 50.2 µM and the GI50 [17] was 21.5 µM. For the same molecule, the TGI [17] was 69.1 µM, the GI50 [18] was 24.6 µM and the TGI [18] was 74.9 µM. It also gave a GI50 [19] of 22.2 µM, a TGI [19] of 57.2 µM and a GI50 [20] of 44.5 µM. For the same molecule, the TGI [20] was > 100 µM, the GI50 [21] was 27.1 µM and the TGI [21] was > 100 µM. For the same molecule, the GI50 [22] was 38.8 µM, the TGI [22] was 89.4 µM and the GI50 [23] was > 100 µM. The TGI [23] was > 100 µM, the GI50 [24] was 18.3 µM and the TGI [24] was 73.3 µM. For the same molecule, the GI50 [25] was 13.6 µM, the TGI [25] was 42.3 µM and the GI50 [26] was 18.6 µM. The TGI [26] was > 100 µM, the GI50 [27] was 40 µM and the TGI [27] was > 100 µM. The GI50 [28] was > 100 µM, the TGI [28] was > 100 µM and the GI50 [29] was 31.4 µM. For the same molecule, the TGI [29] was > 100 µM, the GI50 [30] was 72.8 µM and the TGI [30] was > 100 µM. For the same molecule, the GI50 [31] was 22.1 µM, the TGI [31] was 52.5 µM and the GI50 [32] was 25 µM. The TGI [32] was 70 µM, the GI50 [33] was 40.4 µM and the TGI [33] was > 100 µM. The GI50 [34] was 33.2 µM, the TGI [34] was > 100 µM and the GI50 [35] was 30.7 µM. For the same molecule, the TGI [35] was > 100 µM, the GI50 [36] was 21.5 µM and the TGI [36] was 79.7 µM. For the same molecule, the GI50 [37] was 72 µM, the TGI [37] was > 100 µM and the GI50 [38] was 75.7 µM. The TGI [38] was > 100 µM, the GI50 [39] was 24.1 µM and the TGI [39] was 65.4 µM. The GI50 [40] was 11.6 µM, the TGI [40] was 34.2 µM and the GI50 [41] was 19.8 µM. The TGI [41] was 40.1 µM, the GI50 [42] was > 100 µM and the TGI [42] was > 100 µM. It also gave a GI50 [43] of 26.1 µM, a TGI [43] of 68.4 µM and a GI50 [44] of 55.7 µM. For the same molecule, the TGI [44] was > 100 µM, the GI50 [45] was 16.2 µM and the TGI [45] was 48.1 µM. For the same molecule, the GI50 [46] was 27.2 µM, the TGI [46] was 66.7 µM and the GI50 [47] was 23.4 µM. The TGI [47] was 66 µM, the GI50 [48] was 65.7 µM and the TGI [48] was > 100 µM. For the same molecule, the GI50 [49] was 13.7 µM, the TGI [49] was 61.6 µM and the GI50 [50] was 15.9 µM. It also gave a TGI [50] of 35.3 µM, a GI50 [51] of 25.8 µM and a TGI [51] of 97.4 µM. For the same molecule, the GI50 [52] was 34.9 µM, the TGI [52] was > 100 µM and the GI50 [53] was > 100 µM. For the same molecule, the TGI [53] was > 100 µM, the GI50 [54] was 23.6 µM and the TGI [54] was 62.7 µM.
